{"source": "patent US12514267B2", "about": "“Oligosaccharide compositions for use as animal feed and methods of producing thereof” (DSM Nutritional Products, LLC, priority 2015, dated 2026)", "test_system": "nursery pigs", "assay": "Growth performance of nursery pigs: 0-42d BWG, ADG, ADFI, FCR, with and without Mecadox (Examples 34/35)", "type": "in vivo", "protocol": "Pigs: Approximately 3,240 pigs were placed in three rooms at a nursery farm with 27 pigs per pen and 15 pens per treatment using a randomized complete block design (a total of 8 treatments across 40 pens in each of 3 rooms). All pens were balanced with 14 gilts and 13 barrows. At weaning, weight, age and sow farm source were recorded. At weaning, pigs were placed with the same number of pigs from each sow farm per pen.\nAllotment: Prior to allotment and each weighing event, standard weights were placed on each corner of the scale to ensure that the scale was correctly calibrated. At placement, the average weight of the pigs in each pen were determined and the data was provided as soon as possible for treatment allotment. At weaning, pens were ranked by average weight and weight blocks and pens were assigned to the ranked weights. Treatments were then randomly assigned within weight blocks. When the treatment assignments were done, pen assignments were provided also as soon as possible, and dietary treatments information was entered into the feeding system. Pigs were granted free access to feed and water throughout the trial.\nSchedule: At arrival, the pigs were allotted to pens. A common pelleted diet was fed to all pigs for 7 days. This diet contained 55 ppm of Mecadox (50 g/ton). Dietary treatments were fed from day 7 to the end of the nursery phase (approximately 55 lb). Pens were allotted to dietary treatments on day 7. Diets were fed in two phases with the first phase from day 7 to 21 after weaning and the second phase from day 21 to the end of the nursery phase (day 21 to 42 after weaning).\nTreatments: Dietary treatments were randomly assigned to 40 pens in each of 3 rooms for 5 replications per room and 15 replications total. The 8 treatments were structured as a 2×4 factorial with two diet types (with and without antibiotic; 55 ppm of Mecadox) and four levels of gluco-oligosaccharide (0, 200, 400 or 600 ppm). The gluco-oligosaccharides were prepared according to the procedures set forth in Examples above. The gluco-oligosaccharides were provided on a corn meal carrier, as described in Example 18, such that the 600 ppm dose was obtained with a 0.25% final diet inclusion rate (5 lb premix per ton final feed). All diets contained the same growth promoting levels of Cu and Zn at 200 ppm Cu and 2,000 ppm Zn, in the phase 2 diets and 200 ppm Cu in the phase 3 diet. The diets containing 0 and 0.25% of the premix containing the gluco-oligosaccharides were blended to form the intermediate treatments.\nDiet Preparation: Diets were fed in meal form. The four diets required were the control diets for each diet type and the diets containing 0.25% gluco-oligosaccharide premix. The actual oligosaccharide levels in the test were 0, 200, 400, and 600 ppm with a carrier used such that the premix at 0.25% (5 lb/ton) will provide 600 ppm oligosaccharide.\nLive Animal Data Collection: Pigs were weighed, counted and feed disappearance determined every 7 days during the experiment. Prior to each weighing event standard weights were placed on each corner of the scale to ensure proper calibration of the scale. Pig inventory, weight, removal and feed intake data were recorded and maintained throughout the trial. Data were collected on the standard data collection spreadsheet.\nStatistical analysis: Pens were randomly allotted to treatments using body weight as a blocking factor. Weight block was added to the model as a random effect. Main effects and interaction between diet type and gluco-oligosaccharide level were determined. Data was analyzed for linear and quadratic effect of gluco-oligosaccharide levels.\nThe BWG benefit, ADG benefit, ADFI benefit, and FCR benefit were calculated for 0-42 days by taking the ratio of the respective values with respect to their corresponding controls and performing linear regression to determine the dose-effect of the gluco-oligosaccharide, resulting in the following regression equations set forth in Table 12 below. […]", "key": {"[1]": {"settings": "0-42d, Mecadox 55 ppm, Oligo 0 ppm"}, "[2]": {"settings": "0-42d, from regression equations, antibiotic growth promoter alone"}, "[3]": {"settings": "nursery pigs, vs control, Mecadox 55 ppm, gluco-oligosaccharide 600 ppm without antibiotic (from regression)"}}}
{"compound": "COC(=O)N/N=C/c1c[n+]([O-])c2ccccc2[n+]1[O-]", "note": "[Mecadox]", "values": [{"measurement": "ADFI", "setting": "[1]", "result": 1.37, "unit": "lbs/day"}, {"measurement": "ADG", "setting": "[1]", "result": 0.93, "unit": "lbs/day"}, {"measurement": "BWG", "setting": "[1]", "result": 40.69, "unit": "lbs"}, {"measurement": "FCR", "setting": "[1]", "result": 1.47, "unit": "lbs/lbs"}, {"measurement": "ADFI Benefit", "setting": "[2]", "result": 2.4, "unit": "%"}, {"measurement": "ADG Benefit", "setting": "[2]", "result": 3.2, "unit": "%"}, {"measurement": "BWG Benefit", "setting": "[2]", "result": 2.5, "unit": "%"}, {"measurement": "FCR Benefit", "setting": "[2]", "result": "−0.2", "unit": "%"}, {"measurement": "0-42d FCR", "setting": "nursery pigs, vs control, Mecadox 55 ppm, gluco-oligosaccharide 600 ppm", "result": "did not improve"}, {"measurement": "improved 0-42d ADG", "setting": "[3]", "result": 3.2, "unit": "%"}, {"measurement": "improved 0-42d ADGI", "setting": "[3]", "result": 2.4, "unit": "%"}, {"measurement": "improved 0-42d BWG", "setting": "[3]", "result": 2.5, "unit": "%"}]}
